{"source": "patent US20210330788A1", "about": "“USES OF ANTI-BCMA CHIMERIC ANTIGEN RECEPTORS” (CELGENE CORPORATION, priority 2018, published 2021)", "tested_on": "human multiple myeloma (RPMI-8226) tumors", "assay": "Sub-cutaneous human multiple myeloma (RPMI-8226) tumor model in NSG mice (FIGS. 8A and 8B)", "type": "in vivo, NOD scid gamma (NSG) mice", "details": "˜100mm^3 tumors; 10^7 CAR T cells or Bortezomib; two independent experiments", "description": "Hyperactivation and increased apoptosis could negatively impact CAR T cell persistence in patients and ultimately clinical efficacy. The anti-tumor function of anti-BCMA02 CAR T cells and anti-BCMA10 CAR T cells was examined in a mouse tumor model. NOD-scid gamma (NSG) mice with ˜100mm^3 experimental sub-cutaneous human multiple myeloma (RPMI-8226) tumors were treated with 10^7 anti-BCMA02 CAR T cells, 10^7 anti-BCMA10 CAR T cells, or Bortezomib (VELCADE®). RPMI-8226 growth was monitored with calipers."}
{"compound": "CC(C)C[C@H](NC(=O)[C@H](Cc1ccccc1)NC(=O)c1cnccn1)B(O)O", "note": "[Bortezomib]", "values": [{"measurement": "RPMI-8226 tumor growth (calipers)", "result": "controlled tumor growth"}]}
